We go through 6 compounds from publication PMC8429733, “Oral intake of rice overexpressing ubiquitin ligase inhibitory pentapeptide prevents atrophy in denervated skeletal muscle” (NPJ Science of Food, 2021).

Read-outs that look alike come from different tables or passages of the source. Where a SMILES comes first, the peptide text is derived from it. Where no end group is shown, it is not given here. [ ]: non-standard residue; d: D form. pY = N[C@@H](Cc1ccc(OP(=O)(O)O)cc1)C(=O)O

Data set [1] concerns Caco-2 cell monolayers. In words: Transport of Cblin pentapeptides across Caco-2 cell monolayers (apparent permeability). In kind it is in vitro ADME. To be noted: LC–TOF/MS, n = 4–6; for Effect of Gly-Sar (PEPT1 substrate) on Papp: Caco-2, 1 mM peptide with 10 mM Gly-Sar, 60 min; for Papp in monolayers incubated with cytochalasin D vs untreated membranes: Caco-2, 1 mM peptide, pre-incubation with cytochalasin D 0.5 μg/mL for 30 min, transport 60 min. As for the experimental part: (§1) Cell culture and transport experiment were performed as described[24],[45]. Caco-2 cells were cultured using BD BioCoat Intestinal Epithelium Differentiation Environment kits (BD Bioscience, Franklin Lakes, NJ, USA). Caco-2 cells grown in 0.9 cm^2 Falcon cell culture inserts (polyethylene terephthalate membranes; pore size, 1.0 μm; Becton Dickinson and Co.) with a type I collagen-coated membrane (Cellmatrix type IA Collagen Gel Culturing Kit; Nitta Gelatin Inc., Osaka, Japan) were gently rinsed twice with Hanks balanced salt solution (HBSS; 137 mM NaCl, 5 mM KCl, 5.5 mM D-glucose, 4 mM NaHCO3, 0.75 mM NaHPO4·12H2O, 0.4 mM KH2PO4, 0.8 mM MgSO4·7H2O, and 1.26 mM CaCl2·2H2O, pH 6.0 adjusted with 10 mM 2-(N-morpholino)-ethanesulfonic acid). A portion (1.5 mL) of HBSS buffer (pH 6.0) was added to the apical side, and HBSS buffer (pH 7.4 adjusted with 10 mM N-2-hydroxyethylpiperazine-N′-2-ethanesulfonic acid) was added to the basolateral side. After equilibration for 15 min at 37 °C, the apical buffer was replaced with fresh HBSS (pH 6.0) containing 1 mM peptide and 0.5% DMSO. Portions (60 μL) of solutions were drawn from the apical or basolateral sides at 15, 30, 45, and 60 min to determine amounts of transported peptides. Monolayer integrity was evaluated by measuring TEER using a Millicell® ERS-2 Voltohmmeter (Merck KGaA, Darmstadt, Germany), and monolayers with a TEER of >300 Ω · cm^2 were included in the experiments. The apparent permeability coefficient (Papp, cm/s) was calculated as1 Pappcm/s=V/AC0×dC/dt where dC/dt is the change in concentration on the basolateral side over time (mM/s), V is the volume of solution in the basolateral compartment (1.5 mL), A is the surface area of the membrane (0.9 cm^2), and C0 is the initial concentration on the apical side (mM).
(§2) We investigated the involvement of PEPT1 in peptide transport by competition studies using 10 mM Gly-Sar, a PEPT1 substrate. We also investigated peptide transport over paracellular tight junctions by incubating monolayers with the tight junction opener, cytochalasin D (0.5 μg/mL) for 30 min[47] before evaluating transport.
(§3) Oligopeptides were separated at 40 °C using a linear gradient of 0.1% formic acid (FA) in MS grade water (solvent A) and 0.1% FA in acetonitrile (ACN) (solvent B) for 20 min at a flow rate of 0.2 mL/min, and an Agilent 1200 series HPLC system (Agilent Technologies Inc., Santa Clara, CA, USA) equipped with a Cosmosil 5C18-MS-II column (Φ 2.0 mm × 150 mm, Nacalai Tesque Inc., Kyoto, Japan). The MS conditions comprised: drying gas, N2; flow rate, 8.0 L/min; drying gas temperature, 200 °C; drying gas pressure, 1.6 bar; HV capillary voltage, −4500 V; capillary exit, 70.0 V; skimmer 1, 50.0 V; hexapole 1, 23.0 V; hexapole RF, 100.0 Vpp; skimmer 2, 23.0 V; lens 1 transfer, 52.0 μs, and mass range m/z 100–1000. A calibration solution of 10 mM sodium formate in 50% ACN was injected at the beginning of each run. Data were analyzed using Bruker Data Analysis version 3.2 software (Bruker, Billerica, MA, USA). Calibration curves were prepared using 0.1–10 μM standards.

Test in data set [2]: as above
In kind it is in vitro ADME. To be noted: human; Caco-2 (C2BBe1) monolayers, apical to basolateral, apical HBSS pH 6.0 / basolateral HBSS pH 7.4, 1 mM peptide, 0.5% DMSO, 60 min, 37 °C, TEER >300 Ω·cm2, LC–TOF/MS, means ± SEM (n = 4–6). As for the experimental part: as §1, §2, §3

Data set [3] in a line: Plasma pharmacokinetics after a single oral dose in rats. The data set is classed as in vivo, Sprague-Dawley rats.
The test system of a further data set is Caco-2 cells. In words: Peptidase degradation and dephosphorylation during Caco-2 transport (fragment screening by LC-TOF/MS). The data set is classed as in vitro ADME. To be noted: for Resistance to peptidase degradation in Caco-2 cells: 1 mM peptide, 60 min, fragments screened by m/z, no other peptide fragments found (data not shown). As for the experimental part: as §1, with “After equilibration for 15 min at 37 °C, the apical buffer was replaced with fresh HBSS (pH 6.0) containing 1 mM peptide and 0.5% DMSO. Portions (60 μL) of solutions were drawn from the apical or basolateral sides at 15, 30, 45, and 60 min to determine amounts of transported peptides.” left out
Oligopeptides were separated at 40 °C using a linear gradient of 0.1% formic acid (FA) in MS grade water (solvent A) and 0.1% FA in acetonitrile (ACN) (solvent B) for 20 min at a flow rate of 0.2 mL/min, and an Agilent 1200 series HPLC system (Agilent Technologies Inc., Santa Clara, CA, USA) equipped with a Cosmosil 5C18-MS-II column (Φ 2.0 mm × 150 mm, Nacalai Tesque Inc., Kyoto, Japan). […] Data were analyzed using Bruker Data Analysis version 3.2 software (Bruker, Billerica, MA, USA). […]

Data set [4] is described as follows: LC-TOF/MS detection of CbR-derived peptides in serum and skeletal muscle of mice fed CbR. The data set is classed as in vivo, Jcl:ICR mice. The note with it: serum of mice fed CbR diet for 14 days. As for the experimental part:
as §3
31 Supplementary Figure 2. Analysis of serum collected from mice fed with Non-Tg or CbR using
33 Mice were handled as described in Methods. Briefly, 6-week-old male Jcl:ICR mice (Japan SLC
34 Inc., Shizuoka, Japan) were housed with access to a standard diet and water ad libitum. […]
42 specific for CbR group. ND, not detected. […]
60 analyzed by LC-TOF/MS under conditions described in Methods. […]
61 those of possible metabolites. […] ND, not detected.

A further data set relates to CBLB. The arrangement: method as in 2 sources, ref 9 = [9]; PMID 26874193; doi:10.1016/j.abb.2016.02.014; 9. Ohno A Structural analysis of the TKB domain of ubiquitin ligase Cbl-b complexed with its small inhibitory peptide, Cblin Arch. Biochem. Biophys. 2016 594 1 7 10.1016/j.abb.2016.02.014 26874193 ||| ref 19 = [19]; PMID 23762056; doi:10.1155/2013/907565; 19. Abe T Soy glycinin contains a functional inhibitory sequence against muscle-atrophy-associated ubiquitin ligase Cbl-b Int. J. Endocrinol. 2013 2013 907565 907565 23762056 10.1155/2013/907565 PMC36. The note with it: cited from earlier work. The text has this:
The amino acid sequence of Cblin pentapeptide was designed to inhibit interaction between CBLB and IRS1 proteins based on the ability of CBLB to recognize and bind to phosphorylated tyrosine. […] We previously elucidated the crystal structure of the TKB domain of CBLB complexed with C ...

For data set [5], the system named is Caco-2 cell monolayers. The note with it: cited from earlier work. As for the experimental part: Basolateral solutions were sampled every 15 min for 60 min and analyzed by LC–TOF/MS. […] Therefo ...
Setting [6] is: rat, single p.o. 50 mg/kg BW, n = 1.
Where [7] appears, read: rat, single p.o. 200 mg/kg BW, n = 1.

On to `CSCC[C@H](NC(=O)[C@H](Cc1ccc(O)cc1)NC(=O)CNC(=O)[C@@H](N)CC(=O)O)C(=O)N1CCC[C@H]1C(=O)O` [Asp-Gly-Tyr-Met-Pro] (H-DGYMP-OH), for which, in the data set with Caco-2 cell monolayers [1], the “Effect of Gly-Sar (PEPT1 substrate) on Papp” value is listed as “not affected” and the “Papp in monolayers incubated with cytochalasin D vs untreated membranes” value is on record as “significantly higher”. For the same compound, the Papp A→B at 60 min, 1 mM in data set [2] was determined as 0.7 ± 0.08 ×10⁻⁶ cm/s. This compound also had a half-life in data set [3] (male, Sprague-Dawley, plasma, po, rat, p.o. 100 mg/kg BW, elimination half-life, n = 5) of 28 min. In data set [3] (male, Sprague-Dawley, plasma, po, rat, p.o. 100 mg/kg BW, n = 5, read-out: tmax (converted)), the tmax was 15 min. The “Metabolites found in rat plasma” value in data set [3] (p.o. 100 mg/kg BW, plasma 30 min after administration, screened by m/z) is “Gly-Tyr-Met-Pro and Met-Pro”. In data set [3] (rat, p.o. 100 mg/kg BW, fasted 16 h, LC–TOF/MS with isotope-labelled internal standard, means ± SEM (n = 5)), the Cmax was 2.78 ± 0.17 pmol/mL plasma. Further, in data set [3] (setting [6]), the “AUC0–60 min” value amounted to 14.61 pmol ∙ min/mL plasma, the Cmax is reported as 0.79 pmol/mL plasma, the t1/2 worked out at 8.99 min and the tmax was 10 min. Further, in data set [3] (setting [7]), the “AUC0–60 min” value is reported as 648.91 pmol ∙ min/mL plasma, the Cmax is given as 27.25 pmol/mL plasma, the t1/2 is given as 5.58 min and the tmax was determined as 30 min. The “Resistance to peptidase degradation in Caco-2 cells” value with Caco-2 cells is recorded as “resistant to peptidase degradation”.
With `CSCC[C@H](NC(=O)[C@H](Cc1ccc(OP(=O)(O)O)cc1)NC(=O)CNC(=O)[C@@H](N)CC(=O)O)C(=O)N1CCC[C@H]1C(=O)O` [Asp-Gly-pTyr-Met-Pro] (H-DG[pY]MP-OH), in the data set with Caco-2 cell monolayers [1], the “Effect of Gly-Sar (PEPT1 substrate) on Papp” value is given as “not affected” and the “Papp in monolayers incubated with cytochalasin D vs untreated membranes” value is given as “significantly higher”. In addition, the Papp A→B at 60 min, 1 mM in data set [2] is 0.35 ± 0.12 ×10⁻⁶ cm/s. Also, in the data set with Caco-2 cells, the “Resistance to peptidase degradation in Caco-2 cells” value is listed as “resistant to peptidase degradation”. The “Dephosphorylation during Caco-2 transport” value in the data set on Caco-2 cells (basolateral solution after 60 min, Asp-Gly-Tyr-Met-Pro found at an estimated concentration similar to the intact peptide) is recorded as “dephosphorylated”.
`CSCC[C@H](NC(=O)[C@H](Cc1ccc(O)cc1)NC(=O)CNC(=O)[C@H](CC(=O)O)NC(=O)[C@@H](N)CCC(N)=O)C(=O)N1CCC[C@H]1C(=O)N[C@@H](Cc1c[nH]c2ccccc12)C(=O)O` [Gln-Asp-Gly-Tyr-Met-Pro-Trp] (H-QDGYMPW-OH): the “Uptake of intact heptapeptide into serum” value in data set [4] is listed as “undetectable”.
For “Asp-Ile-Tyr-Asn-Pro [modified Cblin peptide (Cblin-like peptide from soy glycinin) with non-phosphorylated tyrosine]”, the “Effect on CBLB-mediated IRS1 ubiquitination” value in the data set on CBLB was “suppresses”.
On to “Gly-Sar-Sar-Sar-Sar [pentapeptide transport model with methylated peptide bonds]”, for which, in the data set with Caco-2 cell monolayers [5], the Papp is on record as 8.6 ± 0.6^a,* ×10^−7 cm/s and the Papp, as given in text was 8.6 ×10^−7 cm/s.
For Gly-[pY]-Met, the “Effect on CBLB-mediated ubiquitination of IRS1” value in the data set with CBLB (in vitro) is “suppressive effect”.
